The numbers were not newly measured in patent US20120074308A1, “IMMUNOSUPPRESSANT MONITORING BY MALDI MASS SPECTROMETRY” (priority 2010, published 2012), which cites them from elsewhere.

For the data set the following is noted: for therapeutic window: immunosuppressants currently used for transplant patients, level in blood; for narrow therapeutic range: levels in whole blood.

Take `CO[C@H]1C[C@@H]2CC[C@@H](C)[C@@](O)(O2)C(=O)C(=O)N2CCCC[C@H]2C(=O)O[C@H]([C@H](C)C[C@@H]2CC[C@@H](OCCO)[C@H](OC)C2)CC(=O)[C@H](C)/C=C(\C)[C@@H](O)[C@@H](OC)C(=O)[C@H](C)C[C@H](C)/C=C/C=C/C=C/1C` [Everolimus]: the therapeutic window was 3 to 8 ng/mL and the narrow therapeutic range is 3 to 8 ng/mL.

Regarding `CO[C@H]1C[C@@H]2CC[C@@H](C)[C@@](O)(O2)C(=O)C(=O)N2CCCC[C@H]2C(=O)O[C@H]([C@H](C)C[C@@H]2CC[C@@H](O)[C@H](OC)C2)CC(=O)[C@H](C)/C=C(\C)[C@@H](O)[C@@H](OC)C(=O)[C@H](C)C[C@H](C)/C=C/C=C/C=C/1C` [Sirolimus], the therapeutic window was 4 to 12 ng/mL and the narrow therapeutic range is 4 to 12 ng/mL. The “increased levels associated with high toxicity (thrombocytopenia, hyperlipidemia, high serum creatinine levels)” value (blood level) is reported as “above 15 nanogram per milliliter”.

`C=CC[C@@H]1/C=C(\C)C[C@H](C)C[C@H](OC)[C@H]2O[C@@](O)(C(=O)C(=O)N3CCCC[C@H]3C(=O)O[C@H](/C(C)=C/[C@@H]3CC[C@@H](O)[C@H](OC)C3)[C@H](C)[C@@H](O)CC1=O)[C@H](C)C[C@@H]2OC` [Tacrolimus]: the therapeutic window was 4 to 20 ng/mL and the narrow therapeutic range is 4 to 20 ng/mL.
